Test results: patent publication US11529319B2, “Methods and compositions for treating neurological conditions” (priority 2017, dated 2022)
Entries after “also recorded” stand apart in the source; their conditions may differ.

Key:
[1] = test system: Mef2c-het mice; assay: Morris water maze (spatial learning and memory); type: in vivo, mouse
Text: (§1) Mef2c heterozygous knockout (Mef2c-het) mice were created by crossing mice carrying the conventional exon 2-deleted allele of Mef2c (Mef2c^Δ2) with their WT littermates. All procedures for maintaining and using these mice were approved by the Institutional Animal Care and Use Committee (IACUC) at the Sanford Burnham Prebys Medical Discovery Institute. In this study, only male mice were used for the behavioral assays to insure uniformity (either with or without drug treatment). Chronic treatment with memantine, NitroSynapsin (both at 4.6 μmol/kg body weight) or vehicle (PBS) was administered via i.p. injection, twice a day for at least 3 months, starting at ˜2.5 weeks of age. This age was chosen because mice are still juveniles and thus treatment could begin in human at an equivalent stage.
We tested spatial reference learning and memory using a version of the conventional Morris water maze. The mice were trained to swim to a platform 14 cm in diameter and submerged 1.5 cm beneath the surface of the water. The platform was invisible to the mice while swimming. […] Mice were given 4 trials a day for as many days as necessary to reach the criterion (<20 s mean escape latency). Retention of spatial training was assessed 24 h after the last training trial. Both probe trials consisted of a 60-s free swim in the pool without the platform. The ANY-maze video tracking system (Stoelting Co.) was used to videotape all trials for automated analysis.

[2] = test system: Mef2c-het mice; assay: Three-chamber social interaction test; type: in vivo, mouse
Text: as §1
This test was originally developed by the Crawley group for an animal model of autism. Autistic individuals show aberrant reciprocal social interaction, including low levels of social approach and unusual modes of interaction. A social interaction apparatus consisting of a rectangular, three chambered Plexiglas box, with each chamber measuring 20 cm (length)×40.5 cm (width)×22 cm (height) was used. Walls dividing the chamber were clear with small semicircular openings (3.5 cm radius), allowing access into each chamber. The middle chamber was empty and the two outer chambers contained small, round wire cages (Galaxy Cup, Spectrum Diversified Designs, Inc., Streetsboro, Ohio). The mice were habituated to the entire apparatus for 5 min. To assess social interaction, mice were returned to the middle chamber, this time with a stranger mouse (C57BL/6J of the same sex tethered to the wire cage). Time spent in the chamber with the stranger mouse and time spent in the empty wire cage-containing chamber were each recorded for 5 min, as was the number of entries into each chamber. Experimental mice were tested once, and the stranger C57BL/6J mice were used for up to 6 tests.

[3] = test system: Mef2c-het mice; assay: Motor behavioral tests and paw clasping; type: in vivo, mouse; conditions: 3-month treatment
Text: as §1, with “This age was chosen because mice are still juveniles and thus treatment could begin in human at an equivalent stage.” left out
Balance was measured by the latency to fall off the elevated (40 cm) horizontal rod (50 cm long) in four 20 sec trials. […] Traction capacity was measured over three 5 s trials as the ability of the animal to raise the hind limbs while remaining suspended by the forepaws grasped around an elevated horizontal bar (2 mm diameter). […] Muscle Strength was determined by one trial of 60 s in which the mice were placed in the middle of the horizontal bar in an upside-down position and the latency until falling down was measured. […] The latency to turn downward and the total time to descend to the floor over 3 trials was recorded.

[4] = test system: hippocampal slices of Tsc2+/- mice; assay: CA1 LTP in acute hippocampal slices by multielectrode array; type: cell-based, mouse; conditions: 1-2 μM, 4-hour treatment; monitored 55-65 min after induction; vs vehicle
Experimental: Long-term potentiation (LTP), a form of synaptic plasticity elicited in response to excitatory input and thought to represent an electrical correlate of learning and memory in the hippocampus, was examined. Field recordings in the CA1 region of hippocampal slices were used to investigate the effects of Tsc2 mutation on this form of synaptic plasticity. For this purpose, acute hippocampal slices from one-month-old mice were prepared and field recordings in a microelectrode array (MEA) chamber perfused with artificial cerebrospinal fluid (ACSF) were performed. fEPSPs (field excitatory postsynaptic potentials) were recorded in the CA1 region after evoking LTP via stimulation of the Schaffer collaterals (four repetitions of 100 Hz pulses for one second each). The initial slope of the fEPSP was analyzed to assess LTP. However, with a stronger induction protocol as used here, we observed a decrease in LTP, monitored 60 min after induction.

[5] = test system: Mef2c-het mice; assay: Immunohistochemistry and stereological cell counting in hippocampus after chronic treatment; type: in vivo, mouse
Text: as §1
Mice were perfused with PBS buffer and then 2% paraformaldehyde in PBS (PFA).
After perfusion, brains were removed and placed into 2% PFA overnight for post-fixation and then sunk in 30% sucrose in PBS prior to freezing. Cryostat sections were cut at a thickness of 15 μm. Sections were soaked in Antigen Unmasking Solution (Vector) and microwaved for 30 s, followed by permeabilization with 0.25% Triton X-100 in PBS for 15 min. Primary antibodies were incubated for 16 h at 4° C. and fluorescence-conjugated secondary antibodies for 2 h at 25° C. Numerous unstained cells in each field served as an internal control for staining specificity. Primary antibodies included: NeuN (mouse, EMD Millipore), activated caspase-3 (rabbit, Cell Signaling), VGLUT1 (guinea pig, SYSY), VGLUT2 (rabbit, SYSY), VGAT (mouse, SYSY), synaptophysin (mouse, Sigma), GFAP (mouse, Sigma), PCNA (mouse, Santa Cruz), DCX (goat, Santa Cruz). TUNEL assay was performed to assess apoptosis using the Roche In Situ Cell Death Detection Kit per vender's instruction. The number of cells positive or percent area occupied by NeuN, activated caspase-3, TUNEL, GFAP, PCNA, or DCX was counted in specific brain regions using an optical dissector, or estimated by quantitative confocal immunohistochemistry or optical density, as described previously.

Q: `CCC12CC3(N)CC(CC)(C1)CC(O[N+](=O)[O-])(C3)C2` [NitroSynapsin] was tested. Which “latency of finding hidden platform during training sessions” value ([1]; Mef2c-het mice, 4.6 μmol/kg i.p. twice a day, 3 months) did it give?
A: Its value is “improved performance relative to vehicle”.

Q: And the “probe test, time in target vs opposite quadrant (memory retention)” value ([1]; Mef2c-het mice, 4.6 μmol/kg i.p. twice a day, 3 months, 24 h after last training)?
A: Its value is “normalized memory function; also recorded: rescued this effect”.

Q: And the “effect on Morris water maze in WT mice” value ([1]; WT mice, 3-month treatment)?
A: Its value is “no effects”.

Q: And the “social ability: time in chambers, number and duration of visits” value ([2]; Mef2c-het mice, chronic treatment)?
A: Its value is “improved this abnormal social behavior; also recorded: rescued aberrant social ability”.

Q: And the “number of social visits (S1 minus E), NitroSynapsin vs equimolar memantine” value ([2]; Mef2c-het mice, head-to-head comparison)?
A: Its value is “demonstrated the superiority of NitroSynapsin; also recorded: significantly greater than that of memantine (M)-treated mice”.

Q: And the “social behavior of WT mice” value ([2]; WT mice, 3-month treatment)?
A: The value was “did not significantly alter the social behavior of WT mice”.

Q: And the paw clasping [3]?
A: The paw clasping was “did not improve the paw clasping phenotype; also recorded: not rescued”.

Q: And the “CA1 LTP in Tsc2+/- hippocampal slices” value [4]?
A: Its value is “all improved; also recorded: improved LTP; also recorded: able to reverse deficits in synaptic plasticity; also recorded: improvement of LTP”.

Q: And the “PV-immunoreactive synapses (% area)” value [5]?
A: The value was “significantly increased; also recorded: significantly ameliorated”.

Q: And the “TUNEL-positive neurons, hippocampal CA3” value [5]?
A: Its value is “reduced back to normal; also recorded: ameliorated in Het/N mice”.

Q: And the “VGAT immunoreactivity in hippocampus” value [5]?
A: The value was “normalized; also recorded: rescue”.

Q: What about the “VGLUT1 immunoreactivity in hippocampus” value [5] of the same compound?
A: Its value is “unaltered”.

Q: And the “VGLUT2 immunoreactivity in hippocampus” value [5]?
A: Its value is “normalized; also recorded: rescue”.

Q: And the “activated caspase-3-positive neurons, hippocampal CA3” value [5]?
A: The value was “reduced back to normal; also recorded: ameliorated in Het/N mice”.

Q: And the “number of GFAP+ cells (astrocytes) in hippocampus” value [5]?
A: Its value is “normalized the number of GFAP+ cells; also recorded: restored to WT levels”.

Q: What about the “ratio of VGLUT1/VGAT” value [5] of the same compound?
A: The value was “normalized; also recorded: rescue”.

Q: And the “ratio of VGLUT2/VGAT” value [5]?
A: The value was “normalized; also recorded: rescue”.

Q: And the “total number of NeuN+ cells in hippocampus” value ([5]; optical dissector)?
A: Its value is “significantly greater than in Het/V mice; also recorded: significantly greater effect of NitroSynapsin over memantine; also recorded: significantly greater than in vehicle (V)-treated mice; also recorded: rescue”.
